The structures appear in SMILES notation.

One data set deals with SH-SY5Y cells. Kind of data set: Cytotoxicity of BHDPC in SH-SY5Y cells (MTT assay). The settings on record: BHDPC 3 to 30 μM, 24 h. The class given is cell-based, human. As to the method: The human neuroblastoma SH-SY5Y cells were purchased from America Tissue Type Collection. The cells were maintained in DMEM medium supplemented with 10% fetal bovine serum and penicillin/streptomycin (100 U/mL; 100 μg/mL) in a 37° C., 5% CO2 incubator. All experiments were carried out 48 hours after the cells were seeded.
The percentage of surviving cells was estimated by determining the activity of mitochondrial dehydrogenases with 3(4,5-dimethylthiazol-2-yl)-2,5-diphenyltetrazolium bromide (MTT) assay. After drug treatment, cells were incubated at 37° C. for 4 h in 0.5 mg/mL MTT solution. The medium was then removed, and 100 μL of DMSO was added to each well to dissolve the violet formazan crystals. The absorbance of the samples was measured at a wavelength of 570 nm with 655 nm as a reference wavelength. All values were normalized to the control groups.
To evaluate the cytotoxicity of BHDPC, SH-SY5Y cells were incubated with various concentrations of BHDPC for 24 h and the cell viability was determined using MTT assay.
(Tetrazolium dyes change colour on reduction, which living cells bring about.)

The subject of another data set is NIH mice. Nature of the data set: Acute toxicity assay in NIH mice. The settings on record: maximum dose, observed 14 days. The data set is classed as in vivo. As to the method: NIH mice, sex in half, for acute toxicity assay was supplied by Guangzhou Medicinal Experiment Animal Center and the animal qualification code was 44007200007090 and the certificate number was SCXK (Guangdong) 2013-0002. The animals were kept in the SPF-grade animal laboratory which was conformed to the SPF grade requirement of animal testing facility, where temperature was within the range of 22° C. (±2° C.) and the humidity was in the range of 30-70%. The diurnal lighting and darkness cycle was 12 hours. The air change per hour was in the range of 10-20 times. The approval no. of the SPF animal laboratory was SYXK (Guangdong) 2005-0062. The rat chow was the SPF-grade full pellet for mouse, which was bought from Guangdong Medicinal Laboratory Animal Center. The nutritional values and the sanitation condition were conformed to the SPF-grade requirement for animal testing. Antiseptic water were given ad libitum.
NIH mice were randomly divided into 6 groups. Ten NIH mice, sex in half, were assigned to for each group. […]

For `COc1cc(C2C(C(=O)OCc3ccccc3)=C(C)Nc3nnnn32)ccc1O` (stereo not drawn) [BHDPC, benzyl 7-(4-hydroxy-3-methoxyphenyl)-5-methyl-4,7-dihydrotetrazolo[1,5-a]pyrimidine-6-carboxylate], the “cytotoxicity (cell viability, MTT)” value in the data set on SH-SY5Y cells is listed as “did not cause any cytotoxicity”. Further, the toxic effects result in the data set with NIH mice (5 mg/kg, iv) is reported as “no toxic effects were observed”; in the data set with NIH mice (10 mg/kg, oral gavage), “no toxic effects were observed”.

The values above are taken from patent US20160113931A1, “Method of treating and/or preventing neurodegenerative diseases” (University of Macau, priority 2014, published 2016).
